Experimental data taken from the supplement of paper PMC5662764.
± gives the standard deviation of the averaged measurements.

Key:
Assay in all cases: normalised growth rate inhibition (GR value) relative to DMSO control (GR (1 = untreated growth, 0 = cytostasis, <0 = cytotoxic)); higher = less growth inhibition
Settings in all cases: 72 h
[1] = system: MCF7
Experimental: (§1)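 Breast cancer cell lines (BT-20, Hs 578T, MCF 10A, MCF7, MDA-MB-231, SK-BR-3) were plated in 384-well plates and treated 24 h later with drugs at six concentrations (0.04-10 µM). Viable cells were counted by Hoechst/dead-cell-stain imaging at 0 and 72 h. Counts were normalised to DMSO controls on the same plate to give the relative cell count and the growth-rate inhibition (GR) value; technical plate triplicates were averaged for each biological replicate.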

[2] = system: MDAMB231
Experimental: as §1

[3] = system: HS578T
Experimental: as §1

[4] = system: MCF10A
Experimental: as §1

[5] = system: SKBR3
Experimental: as §1

[6] = system: BT20
Experimental: as §1

Structure (SMILES)	normalised growth rate inhibition ([1]; 0.04 µM)	normalised growth rate inhibition ([1]; 0.12 µM)	normalised growth rate inhibition ([1]; 0.37 µM)	normalised growth rate inhibition ([1]; 1.11 µM)	normalised growth rate inhibition ([1]; 3.33 µM)	normalised growth rate inhibition ([1]; 10 µM)	normalised growth rate inhibition ([2]; 0.04 µM)	normalised growth rate inhibition ([2]; 0.12 µM)	normalised growth rate inhibition ([2]; 0.37 µM)	normalised growth rate inhibition ([2]; 1.11 µM)	normalised growth rate inhibition ([2]; 3.33 µM)	normalised growth rate inhibition ([2]; 10 µM)	normalised growth rate inhibition ([3]; 0.04 µM)	normalised growth rate inhibition ([3]; 0.12 µM)	normalised growth rate inhibition ([3]; 0.37 µM)	normalised growth rate inhibition ([3]; 1.11 µM)	normalised growth rate inhibition ([3]; 3.33 µM)	normalised growth rate inhibition ([3]; 10 µM)	normalised growth rate inhibition ([4]; 0.04 µM)	normalised growth rate inhibition ([4]; 0.12 µM)	normalised growth rate inhibition ([4]; 0.37 µM)	normalised growth rate inhibition ([4]; 1.11 µM)	normalised growth rate inhibition ([4]; 3.33 µM)	normalised growth rate inhibition ([4]; 10 µM)	normalised growth rate inhibition ([5]; 0.04 µM)	normalised growth rate inhibition ([5]; 0.12 µM)	normalised growth rate inhibition ([5]; 0.37 µM)	normalised growth rate inhibition ([5]; 1.11 µM)	normalised growth rate inhibition ([5]; 3.33 µM)	normalised growth rate inhibition ([5]; 10 µM)	normalised growth rate inhibition ([6]; 0.04 µM)	normalised growth rate inhibition ([6]; 0.12 µM)	normalised growth rate inhibition ([6]; 0.37 µM)	normalised growth rate inhibition ([6]; 1.11 µM)	normalised growth rate inhibition ([6]; 3.33 µM)	normalised growth rate inhibition ([6]; 10 µM)
Nc1cccc(-c2cc3c(Oc4cccc(O)c4)ncnc3[nH]2)c1 [TWS-119]	1.06 ± 0.061	0.984 ± 0.053	0.991 ± 0.071	0.963 ± 0.079	0.616 ± 0.079	-0.165 ± 0.1	0.975 ± 0.056	0.961 ± 0.07	0.929 ± 0.084	0.785 ± 0.056	0.619 ± 0.021	0.0363 ± 0.044	1.02 ± 0.014	0.9855 ± 0.0042	0.978 ± 0.011	0.8808 ± 0.0081	0.707 ± 0.057	-0.081 ± 0.15	1.02 ± 0.013	1.01 ± 0.011	1.02 ± 0.0082	1.02 ± 0.024	0.912 ± 0.11	0.0326 ± 0.084	1.09 ± 0.077	0.989 ± 0.074	1.06 ± 0.044	1.02 ± 0.043	0.48 ± 0.095	-0.212 ± 0.26	1.02 ± 0.034	0.994 ± 0.056	0.971 ± 0.055	0.885 ± 0.11	0.696 ± 0.096	0.0129 ± 0.081
C=CC(=O)Nc1cccc(Nc2nc(NC3CCC(N(C)C)CC3)nc3c2ncn3C(C)C)c1 (centres undefined) [WZ-3105]	-0.317 ± 0.065	-0.303 ± 0.097	-0.28 ± 0.11	-0.254 ± 0.091	-0.27 ± 0.062	-0.296 ± 0.05	-0.23 ± 0.13	-0.232 ± 0.15	-0.235 ± 0.16	-0.237 ± 0.16	-0.232 ± 0.12	-0.132 ± 0.12	-0.121 ± 0.089	-0.138 ± 0.075	-0.127 ± 0.097	-0.135 ± 0.11	-0.147 ± 0.1	-0.143 ± 0.14	0.523 ± 0.12	0.188 ± 0.13	-0.101 ± 0.14	-0.224 ± 0.24	-0.245 ± 0.25	-0.269 ± 0.24	-0.298 ± 0.15	-0.287 ± 0.18	-0.269 ± 0.18	-0.273 ± 0.18	-0.266 ± 0.15	-0.227 ± 0.19	0.223 ± 0.13	0.0547 ± 0.14	-0.0538 ± 0.17	-0.207 ± 0.19	-0.253 ± 0.18	-0.328 ± 0.19
COc1cc(C(=O)N2CCC(N3CCN(C)CC3)CC2)ccc1Nc1ncc2c(n1)N(C)c1ccccc1C(=O)N2C [XMD-1150]	0.852 ± 0.021	0.784 ± 0.014	0.599 ± 0.018	0.365 ± 0.034	0.201 ± 0.012	0.0333 ± 0.0087	0.891 ± 0.054	0.818 ± 0.088	0.567 ± 0.12	0.353 ± 0.077	0.189 ± 0.029	0.0699 ± 0.13	0.964 ± 0.035	0.913 ± 0.051	0.815 ± 0.034	0.66 ± 0.0096	0.411 ± 0.039	-0.053 ± 0.089	0.973 ± 0.013	0.937 ± 0.021	0.841 ± 0.036	0.665 ± 0.078	0.384 ± 0.12	0.123 ± 0.052	0.677 ± 0.17	0.669 ± 0.12	0.609 ± 0.12	0.514 ± 0.16	0.348 ± 0.18	0.0641 ± 0.18	0.885 ± 0.11	0.85 ± 0.16	0.803 ± 0.16	0.722 ± 0.17	0.551 ± 0.12	0.238 ± 0.15
FC(F)c1nc2ccccc2n1-c1nc(N2CCOCC2)nc(N2CCOCC2)n1 [ZSTK-474]	0.664 ± 0.2	0.37 ± 0.18	0.138 ± 0.048	0.0423 ± 0.065	0.00162 ± 0.071	-0.0168 ± 0.11	0.881 ± 0.062	0.828 ± 0.055	0.728 ± 0.025	0.646 ± 0.061	0.511 ± 0.077	0.386 ± 0.11	0.806 ± 0.017	0.663 ± 0.032	0.522 ± 0.088	0.394 ± 0.12	0.289 ± 0.1	0.148 ± 0.11	0.954 ± 0.065	0.842 ± 0.12	0.698 ± 0.16	0.472 ± 0.083	0.296 ± 0.049	0.179 ± 0.069	0.783 ± 0.087	0.46 ± 0.06	0.161 ± 0.1	0.0252 ± 0.12	-0.0251 ± 0.15	-0.031 ± 0.13	0.971 ± 0.029	0.855 ± 0.16	0.615 ± 0.27	0.211 ± 0.17	0.0764 ± 0.14	-0.0662 ± 0.025
